Reference: US9776979B2, “EBI2 modulators” (Sanford-Burnham Medical Research Institute, priority 2013, dated 2017)

These compounds were tested against EBI2 (Homo sapiens, UniProt P32249) (assay: Cell-based luminescent assay (EBI2 modulation)). Conditions: cell-based luminescence; 7a,25-OHC final assay concentration 80 nM; 60 minutes incubation; read-out: IC50.
Chain of EBI2 (P32249 whole entry): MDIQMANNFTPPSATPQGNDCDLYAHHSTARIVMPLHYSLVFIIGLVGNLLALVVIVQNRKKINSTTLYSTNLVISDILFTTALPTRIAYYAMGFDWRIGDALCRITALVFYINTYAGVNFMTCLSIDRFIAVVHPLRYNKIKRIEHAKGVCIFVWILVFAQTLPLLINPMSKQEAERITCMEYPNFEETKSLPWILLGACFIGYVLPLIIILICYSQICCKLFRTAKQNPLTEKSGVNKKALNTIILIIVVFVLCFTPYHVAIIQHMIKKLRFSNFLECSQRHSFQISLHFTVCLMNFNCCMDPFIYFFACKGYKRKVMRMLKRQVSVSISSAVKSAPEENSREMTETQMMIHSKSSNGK
Procedure, shortened: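 Cells plated overnight at 37° C, then exposed to compound at 4-5 uM final with 80 nM 7a,25-OHC agonist for 60 min at 37° C. Luminescence read after 60 min detection at 25° C in the dark; values normalized to neutral and stimulator controls and plate-pattern corrected.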
`O=C(Nc1ccc(C(F)(F)F)cc1)N1CCN(C(=O)c2cc3cc(Cl)ccc3[nH]2)CC1` [Compound C456, {4-[(5-chloroindol-2-yl)carbonyl]piperazinyl}-N-[4-(trifluoromethyl)phenyl]carboxamide] gave an IC50 of 100 to 500 nM. For `O=C(C=Cc1ccc2c(c1)OCO2)N1CCN(C(=O)c2ccc(-c3nnn[nH]3)cc2)CC1` [Compound C457, 3-(2H-benzo[3,4-d]1,3-dioxolan-5-yl)-1-{4-[(4-(1H-1,2,3,4-tetraazol-5-yl)phenyl)carbonyl]piperazinyl}prop-2-en-1-one], the IC50 was 100 to 500 nM. For `O=C(O)c1ccc(C(=O)N2CCN(C(=O)c3cc4cc(Cl)ccc4[nH]3)CC2)cc1` [Compound C460, 4-({4-[(5-chloroindol-2-yl)carbonyl]piperazinyl}carbonyl)benzoic acid], the IC50 was 100 to 500 nM. `O=C(C#Cc1ccc(F)cc1)N1CCN(Cc2ccc(Cl)cc2)CC1` [Compound C461, 1-{4-[(4-chlorophenyl)methyl]piperazinyl}-3-(4-fluorophenyl)prop-2-yn-1-one] was tested, and the IC50 was 100 to 500 nM. Work on `O=C(C=Cc1ccc2c(c1)OCO2)N1CCN(Cc2ccc(F)cc2)CC1` [Compound C463, 3-(2H-benzo[3,4-d]1,3-dioxolan-5-yl)-1-{4-[(4-fluorophenyl)methyl]piperazinyl}prop-2-en-1-one] yielded an IC50 of 100 to 500 nM. Work on `O=C(c1cnc2ccccc2c1)N1CCN(Cc2ccc(Cl)cc2)CC1` [Compound C464, 4-[(4-chlorophenyl)methyl]piperazinyl 3-quinolyl ketone] yielded an IC50 of 100 to 500 nM. `Cc1nc2ccc(C(=O)N3CCN(C(c4ccccc4)c4ccccc4)CC3)cc2[nH]1` [Compound C465, 4-(diphenylmethyl)piperazinyl 2-methylbenzimidazol-5-yl ketone] was tested, and the IC50 was 100 to 500 nM. For `O=C(c1cc2ccccc2cn1)N1CCN(C(c2ccccc2)c2ccccc2)CC1` [Compound C468, 4-(diphenylmethyl)piperazinyl 3-isoquinolyl ketone], the IC50 was 100 to 500 nM. With `O=C(C#Cc1ccccc1C(F)(F)F)N1CCN(Cc2ccc(Cl)cc2)CC1` [Compound C469, 1-{4-[(4-chlorophenyl)methyl]piperazinyl}-3-[2-(trifluoromethyl)phenyl]prop-2-yn-1-one] the IC50 was 100 to 500 nM. For `O=C(c1cc2cc(Cl)ccc2[nH]1)N1CCN(c2ccc(F)cc2)CC1` [Compound C470, 5-chloroindol-2-yl 4-(4-fluorophenyl)piperazinyl ketone], the IC50 was 100 to 500 nM. `O=C(c1ccc(Br)cc1)N1CCN(Cc2ccc(Cl)cc2)CC1` [Compound C472, 4-bromophenyl 4-[(4-chlorophenyl)methyl]piperazinyl ketone] was tested, and the IC50 was 100 to 500 nM. Compound `COc1ccc(CN2CCN(C(=O)C#Cc3cccc(Cl)c3)CC2)cc1` [Compound C473, 3-(3-chlorophenyl)-1-{4-[(4-methoxyphenyl)methyl]piperazinyl}prop-2-yn-1-one] has an IC50 of 100 to 500 nM. With `O=C(Nc1cccc(I)c1)N1CCN(C(=O)c2cc3cc(Cl)ccc3[nH]2)CC1` [Compound C474, {4-[(5-chloroindol-2-yl)carbonyl]piperazinyl}-N-(3-iodophenyl)carboxamide] the IC50 was 100 to 500 nM. In the case of `O=C(C#Cc1ccccc1C(F)(F)F)N1CCN(Cc2ccc(C(F)(F)F)cc2)CC1` [Compound C475, 3-[2-(trifluoromethyl)phenyl]-1-(4-{[4-(trifluoromethyl)phenyl]methyl}piperazinyl)prop-2-yn-1-one], the IC50 is reported as 100 to 500 nM. Compound `O=C(c1cc2cc(Cl)ccc2[nH]1)N1CCN(c2ccccc2F)CC1` [Compound C476, 5-chloroindol-2-yl 4-(2-fluorophenyl)piperazinyl ketone] has an IC50 of 100 to 500 nM. `O=C(Nc1ccc(F)cc1F)N1CCN(C(=O)c2cc3cc(Cl)ccc3[nH]2)CC1` [Compound C477, N-(2,4-difluorophenyl){4-[(5-chloroindol-2-yl)carbonyl]piperazinyl}carboxamide] was tested, and the IC50 was 100 to 500 nM. For `O=C(c1cc2ccccn2n1)N1CCN(C(c2ccccc2)c2ccccc2)CC1` [Compound C478, 4-(diphenylmethyl)piperazinyl 8-hydropyrazolo[1,5-a]pyridin-2-yl ketone], the IC50 was 100 to 500 nM.
